Experimental findings from patent US20220062240A1, “METHODS OF TREATING CANCER USING A CLK INHIBITOR” (BioSplice Therapeutics, Inc., priority 2018, published 2022) are described below.

Structures are written as SMILES. Read-outs that look alike come from different tables or passages of the source. Bounds are passed on as bounds.

One series has as its system SW480 CRC tumors. The series is described as follows: SW480 tumor xenograft. Type of series: in vivo, mice. The note with it: SW480, oral. The protocol:
Dosing was initiated when tumors were 100-200 mm^3 in size and measurements performed twice per week. The data are presented as Mean±SEM (n=6-7 mice per each group. *P<0.05, student's t-test).
For all studies, all doses were well-tolerated, with acceptable body weight changes (<−10%) compared to baseline by end of the studies (FIGS. 18A-C).
All tumor xenograft studies are performed in accordance with approved Samumed, LLC Animal Committee protocols. Athymic nude Foxn1 mice are inoculated subcutaneously in the right flank region with ˜3×10^6 SW480 CRC cells, ˜4×10^6 HCT-116 CRC cells, or ˜5×10^6 NCI-N87 GC cells/mouse. PDX studies are performed by Crown Bioscience. Tumor fragments from stock mice inoculated with selected primary human colorectal cancer tissues are harvested and used for inoculation into BALB/c nude mice. Each mouse is inoculated subcutaneously at the right flank with primary human colorectal cancer model CR2545 fragment (2-3 mm in diameter). For all studies, when tumors reached -100-200 mm^3, tumors are randomized, and dosing is initiated. […] This value reflects the degree of tumor growth inhibition relative to the vehicle-treated group.

In a further series the test system is SW480 cells. In words: Wnt pathway gene (qRT-PCR) and protein (immunoblot) expression. It counts as cell-based, human. On the procedure: Fold-change relative to DMSO is shown (n=3 biological replicates per group, Mean±SD, **P<0.01; ***P<0.001, student's two-tailed t-test).
FIG. 6D is an immunoblot showing Wnt pathway-related protein expression in SW480 cells treated as indicated for 24 hours. The proteins were separated into nuclear and cytoplasmic fractions. GAPDH and Lamin B1 represent cytoplasmic and nuclear protein loading controls, respectively. The blots are representative of two experiments.
FIG. 6E is an immunoblot showing Wnt pathway-related protein expression in SW480 cells treated as indicated for 48 hours. The proteins were separated into nuclear and cytoplasmic fractions. GAPDH and Lamin B1 represent cytoplasmic and nuclear protein loading controls, respectively. The blots are representative of two experiments.
The fold-change relative to DMSO is shown (n=3 biological replicates per group, Mean±SD, *P<0.05; **P<0.01; ***P<0.001, student's two-tailed t-test).
FIG. 7C is an immunoblot showing protein expression of hits identified in FIG. 7A. SW480 cells were treated as indicated for 24 hours and proteins were separated into nuclear and cytoplasmic fractions. GAPDH and Lamin B1 represent the cytoplasmic and nuclear protein loading controls, respectively. The blots are representative of two experiments.
For indicated experiments, cells were pelleted by centrifugation and washed with PBS and protein from the cell pellet was fractionated into cytoplasmic and nuclear fractions using a NE-PER™Nuclear and Cytoplasmic Extraction Reagents kit containing Halt™ protease and phosphatase inhibitors (Thermo Fisher). Protein concentrations of the samples were quantified using the Pierce Micro BCA protein assay kit (Thermo Fisher). […] Primary antibodies were incubated overnight at 4° C., with GAPDH, Lamin B1 or β-actin being used as loading controls (refer to Table 19 for primary antibodies and dilutions used).
Total RNA was isolated using RNeasy Plus mini kit (Qiagen) or MagMAX Total RNA kit (Thermo Fisher) as per the manufacturers' protocol. cDNA was synthesized using the iScript cDNA Synthesis Kit (Bio-Rad), followed before performing qRT-PCR. Reactions were then run on a real-time PCR system (CFX384; Bio-Rad). Relative gene expression was determined by normalizing to GAPDH using the ΔΔCt method.

A further series addresses T1, MYLK4 (Homo sapiens, UniProt Q86YV6).
T1 construct: purchased ThermoFisher SelectScreen
In words: Kinase IC50 (SelectScreen). It counts as biochemical.

The target in the next series is T2, STK17A (DRAK1) (Homo sapiens, UniProt Q9UEE5).
T2 construct: purchased ThermoFisher SelectScreen
The series is described as follows: Kinase IC50 (SelectScreen). Type of series: biochemical. The settings on record: Table 8.

For series [1], the target named is cyclin-dependent kinase 1 (CDK1) (Homo sapiens, UniProt P06493). The series is described as follows: CDK1 kinase assay (Z-LYTE).
Procedure: Compounds were acoustically transferred on 1536-well plates (Echo 550, LabCyte) instrument. Kinase, peptide, and ATP reagents from the Z′-LYTE Kinase Assay Kits (Thermo Fisher) were dispensed onto the compound plates using an EL406 liquid dispenser (BioTek). Plates were incubated in the dark at room temperature for 1 hr. Development reagent was added to the plates and then incubated in the dark at room temperature for 1 hr. Fluorescence signal form the plate was then read using an EnVision Multilabel Plate Reader (Perkin Elmer).
Series [2] in a line: Plasma pharmacokinetics after single IV bolus or oral dose. Type of series: in vivo, mice. On the procedure: Following a single Intravenous (IV) Bolus or Oral (PO) Dose to Male Balb/c Mice, approximately 0.1 mL whole blood was collected via the cheek vein (submandibular) according to an alternate bleeding schedule (n=3/time point/route) at 0.083 (IV), 0.25, 0.5, 1, 2, 4, 6, 8, and 24 hours post-dose into tubes containing K2EDTA anticoagulant and plasma was harvested by centrifugation.
Prior to in vivo efficacy studies, pharmacokinetic studies were performed with Compound 12.

In series [3] the test system is Wnt-responsive Sp5-Luc reporter in SW480 colon carcinoma cells. In words: Wnt activity screening assay (Sp5-Luc reporter). Type of series: cell-based. The settings on record: Homo sapiens. Put shortly:
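SW480 cells stably transduced with a lentiviral firefly luciferase reporter under a human Sp5 promoter with eight TCF/LEF sites. Cells plated at 4,000/well in DMEM with 1% FBS and incubated 36 to 48 hours at 37° C. Luminescence read after BriteLite Plus addition.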

[4] abbreviates: SW480, 24 hours, compared to DMSO.
The mark [5] stands for this setting: mouse, plasma, IV, 2 mg/kg, male Balb/c mice.
The mark [6] stands for this setting: mouse, plasma, PO, 10 mg/kg, male Balb/c mice.
The mark [7] stands for this setting: SW480 Sp5-Luc reporter, 36 to 48 hours, read-out: EC50.

cyclin-dependent kinase 1 (CDK1), sequence (P06493 whole entry): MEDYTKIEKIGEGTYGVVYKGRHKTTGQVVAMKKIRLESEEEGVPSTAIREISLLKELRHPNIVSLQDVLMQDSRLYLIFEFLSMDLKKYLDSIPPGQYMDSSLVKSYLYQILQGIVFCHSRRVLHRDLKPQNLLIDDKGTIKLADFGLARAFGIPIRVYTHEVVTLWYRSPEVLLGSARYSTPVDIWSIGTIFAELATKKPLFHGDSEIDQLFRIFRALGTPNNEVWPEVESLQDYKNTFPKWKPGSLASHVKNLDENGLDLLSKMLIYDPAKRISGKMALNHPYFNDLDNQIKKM
cyclin-dependent kinase 1 (CDK1), sequence (P14635 whole entry partner): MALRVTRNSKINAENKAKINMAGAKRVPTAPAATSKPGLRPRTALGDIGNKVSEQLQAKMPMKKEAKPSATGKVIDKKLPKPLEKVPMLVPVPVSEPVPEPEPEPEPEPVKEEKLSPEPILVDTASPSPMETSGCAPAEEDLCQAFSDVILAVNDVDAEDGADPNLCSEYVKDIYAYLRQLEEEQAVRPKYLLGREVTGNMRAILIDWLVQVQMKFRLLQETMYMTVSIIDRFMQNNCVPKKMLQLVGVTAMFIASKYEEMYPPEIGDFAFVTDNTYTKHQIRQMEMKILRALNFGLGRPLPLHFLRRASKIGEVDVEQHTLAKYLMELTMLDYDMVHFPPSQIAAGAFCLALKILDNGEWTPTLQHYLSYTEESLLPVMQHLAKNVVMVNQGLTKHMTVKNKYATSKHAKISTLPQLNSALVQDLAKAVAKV
T1 sequence (Q86YV6 whole entry): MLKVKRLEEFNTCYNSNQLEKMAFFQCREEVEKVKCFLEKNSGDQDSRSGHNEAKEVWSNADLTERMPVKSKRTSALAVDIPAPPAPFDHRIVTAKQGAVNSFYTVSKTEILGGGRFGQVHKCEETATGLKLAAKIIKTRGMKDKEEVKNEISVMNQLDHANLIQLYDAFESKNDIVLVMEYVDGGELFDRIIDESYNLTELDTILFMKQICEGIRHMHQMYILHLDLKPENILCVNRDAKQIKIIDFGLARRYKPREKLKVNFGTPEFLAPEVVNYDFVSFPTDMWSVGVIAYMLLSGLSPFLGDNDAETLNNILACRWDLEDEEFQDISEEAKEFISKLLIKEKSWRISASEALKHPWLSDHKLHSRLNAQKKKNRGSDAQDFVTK
T2 sequence (Q9UEE5 whole entry): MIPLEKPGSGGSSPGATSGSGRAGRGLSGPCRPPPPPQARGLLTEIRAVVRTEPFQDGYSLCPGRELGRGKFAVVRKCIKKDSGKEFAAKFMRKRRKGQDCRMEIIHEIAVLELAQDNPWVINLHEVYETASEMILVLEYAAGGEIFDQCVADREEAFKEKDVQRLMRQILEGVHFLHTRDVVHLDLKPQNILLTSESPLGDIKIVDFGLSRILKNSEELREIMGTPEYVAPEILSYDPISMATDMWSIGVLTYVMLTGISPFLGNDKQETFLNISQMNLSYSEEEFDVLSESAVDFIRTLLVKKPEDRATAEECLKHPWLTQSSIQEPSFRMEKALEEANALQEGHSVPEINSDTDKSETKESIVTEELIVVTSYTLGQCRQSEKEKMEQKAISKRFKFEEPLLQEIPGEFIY

For `CN1CCN(c2cc(C(=O)Nc3cc4cc(-c5cnn(C)c5)ccc4cn3)ccn2)CC1` [Compound 12], the “tumor growth inhibition (TGI)” value in the series with SW480 CRC tumors (12.5 mg/kg QD) was 55%. In the series with SW480 CRC tumors (12.5 mg/kg QOD), the “tumor growth inhibition (TGI)” value is 60%. Also, the “tumor growth inhibition (TGI)” value in the series with SW480 CRC tumors (25 mg/kg QD, relative to vehicle) is 83%. Moreover, the “tumor growth inhibition (TGI)” value in the series with SW480 CRC tumors (25 mg/kg QOD) was determined as 69%. Besides, the “tumor growth inhibition (TGI)” value with SW480 CRC tumors (remaining dose groups (other than 25 mg/kg QD)) was more than 50%. For the same molecule, the “cytoplasmic and nuclear protein levels of β-catenin” value in the series with SW480 cells (SW480) is reported as “unaffected”. Moreover, in the series with SW480 cells (SW480, 24 or 48 hours, all tested proteins except β-catenin), the “Wnt pathway protein expression in cytoplasmic or nuclear fractions” value was “inhibition of protein expression”. Moreover, in the series on SW480 cells (SW480, 24 hours), the FRZB gene expression entry is “Upregulation”; the GSK3β gene expression entry is given as “no effect”; the PPP3CC gene expression entry is given as “inhibitory effect”; the “gene and protein expression of LRP6” value is “inhibited, but not as potently as LRP5”. In addition, in the series with SW480 cells (setting [4]), the “gene expression of AXIN2, LEF1, MYC, TCF7, CTNNB1 and TCF7L2” value was “dose-dependent decrease”; the “gene expression of LRP5, DVL2, BTRC, ERRB2, MAPK8, PKN1” value is recorded as “significantly downregulated”. Also, in the series on SW480 cells (SW480, 24 hours, relative to DMSO), the “protein expression of LRP5, LRP6, DVL2, β-TrcP and HER2” value is listed as “pronounced dose-dependent inhibition”. Also, in the series with SW480 cells (SW480, compared to vehicle), the “inhibitory effects on MAPK8 and PKN1 protein expression” value is listed as “less profound”. The molecule further gave an IC50 against MYLK4 of 0.03 µM. In addition, on STK17A (DRAK1), half-maximal inhibition (IC50) was put at 0.044 µM. The molecule further yielded an IC50 in series [1] of 1.1 µM. This molecule showed a tlast in series [2] (IV, 2 mg/kg, male Balb/c mice) of 24.0 h. In series [2] (PO, 10 mg/kg, male Balb/c mice), this molecule showed a tlast of 24.0 h. Further, in series [2] (setting [5]), the AUC(0-inf) stood at 2.28 µg·h/mL, the AUC(0-t) worked out at 2.27 µg·h/mL, the C0 stood at 1.12 µg/mL and the half-life is 3.15 h. The clearance in series [2] (mouse, plasma, IV, 2 mg/kg, male Balb/c mice, read-out: CL) came out at 0.876 L/h/kg. Moreover, in series [2] (mouse, plasma, IV, 2 mg/kg, male Balb/c mice, read-out: VSS), the Vd was found to be 3.29 L/kg. Further, in series [2] (setting [6]), the AUC(0-inf) turned out to be 10.3 µg·h/mL, the AUC(0-t) was 10.3 µg·h/mL, the Cmax was found to be 1.55 µg/mL and the Tmax was found to be 2 h. In addition, in series [2] (setting [6]), the half-life is 2.76 h. The bioavailability in series [2] (mouse, plasma, PO, 10 mg/kg, male Balb/c mice, read-out: % F (oral bioavailability)) was 91%. Moreover, in series [2] (single dose, mice), the clearance result is reported as “low clearance”.
Take `CN1CCN(C(=O)C(C)(C)c2ccc(C(=O)Nc3cn4cc(-c5ccncc5)ccc4n3)cc2)CC1` [Compound 27]: in series [3] (SW480), the EC50 amounted to 0.116 µM.
Consider `CN(C)Cc1cncc(-c2cnc3[nH]nc(-c4nc5c(-c6cc(F)cc(N7CCOCC7)c6)cncc5[nH]4)c3c2)c1` [Compound 46], for which the EC50 in series [3] (setting [7]) worked out at 0.021 µM.
Turning to `O=C(Nc1cncc(-c2ccc3[nH]nc(-c4cc5cnccc5[nH]4)c3c2)c1)C1CCCCC1` [Compound 47], the EC50 in series [3] (setting [7]) turned out to be 0.285 µM.
The same measure, in the same setting: to `c1cncc(-c2ccc3[nH]nc(-c4cc5c(-c6cccnc6)cncc5[nH]4)c3c2)c1` [Compound 48] belongs 0.31 µM; to `CN1CCCn2cc(nn2)-c2nccc3[nH]c(nc23)-c2n[nH]c3ccc(cc23)-c2cncc(c2)C1` [Compound 57], 0.338 µM.
For the molecule `COc1ccc(NC(=O)c2n[nH]c3ccc(-c4cncc(CN5CCCCC5)c4)cc23)cn1` [Compound 59], in series [3] (setting [7]), the EC50 was determined as 0.015 µM.
The same measure, in the same setting: to `CN1CCN(c2ccc(NC(=O)c3n[nH]c4ccc(-c5cncc(NC(=O)C6CC6)c5)cc34)cn2)CC1` [Compound 60] belongs 0.08 µM; to `CN1CCC(Oc2ccc(NC(=O)c3n[nH]c4cc(F)c(-c5cnn(C)c5)cc34)cc2)CC1` [Compound 61], 0.144 µM.
`O=C1CCc2cccc(c2)-c2cncc(c2)NC(=O)c2n[nH]c3ccc(cc23)-c2cncc(c2)CN1` [Compound 62]: in series [3] (setting [7]), the EC50 was more than 10 µM.
The same measure, in the same setting: as for `Cc1n[nH]c2cc(F)c(-c3cncc(CN4CCNCC4)c3)cc12` [Compound 63], the figure is 1.81 µM; as for `Cc1n[nH]c2ccc(-c3cncc(N[C@H]4CC[C@@H](N)CC4)n3)cc12` [Compound 64], 0.225 µM; as for `Cc1n[nH]c2ccc(-c3cncc(N[C@H]4CC[C@H](O)CC4)n3)cc12` [Compound 65], 0.095 µM.
As to `CN1CCN(c2cc(Nc3ncc4c(-c5ccc6ncccc6c5)c[nH]c4n3)ccn2)CC1` [Compound 67], the EC50 in series [3] (setting [7]) amounted to 0.284 µM.
Same read-out and setting: to `Cn1ncc(-c2ccc3cnc(NC(=O)C4CC5(C4)CN(CCF)C5)cc3c2)c1CN1CCCCC1` [Compound 77] belongs 0.17 µM; to `[2H]c1c([2H])c([2H])c(/C=C/C(=O)Nc2cc3cc(-c4cncn4C)ccc3cn2)c([2H])c1[2H]` [Compound 81], 0.062 µM; to `Cc1ncc(C(=O)Nc2cc3nc(-c4cnc(C)n4C)ccc3cn2)s1` [Compound 82], 0.107 µM.
Consider `CN1CCC(Sc2ccc3cnc(NC(=O)c4ccnc(SC5CCN(C)CC5)c4)cc3c2)CC1` [Compound 88], for which the EC50 in series [3] (setting [7]) turned out to be 0.694 µM.
On the same count and under the same terms, to `CN1CCC(C(=O)Nc2c[nH]nc2-c2nc3c(-c4ccc(F)s4)cccc3[nH]2)CC1` [Compound 90] belongs 0.019 µM.
On to `O=C(Nc1c[nH]nc1-c1nc2c(-c3cccc(F)c3)cncc2[nH]1)c1cccnc1` [Compound 91], for which the concentration giving a half-maximal response (EC50) in series [3] (setting [7]) worked out at 0.003 µM.
The same measure, in the same setting: to `O=C(Nc1ccc(OCCN2CCCC2)cc1)c1n[nH]cc1/C=C/c1cccnc1` [Compound 92] belongs 1.85 µM; to `CN1CCC(Oc2ccc(NC(=O)c3n[nH]cc3/C=C/c3cccnc3)cn2)CC1` [Compound 93], 0.964 µM.
